{"source": "patent US6348614B1", "about": "(priority 1996, dated 2002)", "tested_on": "P.infestans (A2 mating type, resistant to metalaxyl)", "assay_type": "in vivo, Phytophthora infestans", "settings": "Potato, 500 ppm, 6 days after inoculation"}
{"smiles": "CC(CC(=O)OCCCc1ccccc1)NS(=O)(=O)c1ccccc1", "note": "(stereo not shown) [compound 51, D,L N-benzensulphonyl-3-aminobutyric acid 3-phenylpropyl ester]", "values": [{"measurement": "Control efficacy (%) 6d", "result": 76, "unit": "%"}]}
{"smiles": "CCCCCCCOC(=O)CC(C)NC(=O)c1cccc(C)c1", "note": "(stereo not shown) [compound 22, D,L N-3-methylbezoyl-3-aminobutyric acid heptyl ester]", "values": [{"measurement": "Control efficacy (%) 6d", "result": 70, "unit": "%"}]}
{"smiles": "CCCCCCCOC(=O)CC(C)NC(=O)c1ccc(C(C)(C)C)cc1", "note": "(stereo not shown) [compound 15, D,L N-4-tertbutylbenzoyl-3-aminobutyric acid heptyl ester]", "values": [{"measurement": "Control efficacy (%) 6d", "result": 79, "unit": "%"}]}
{"smiles": "CC(CC(=O)OCCCc1ccccc1)NS(=O)(=O)c1ccccc1", "note": "(stereo not shown) [compound 17, D,L N-benzenesulfonyl-3-aminobutyric acid 3-phenylpropyl ester]", "values": [{"measurement": "Control efficacy (%) 6d", "result": 76, "unit": "%"}]}
{"smiles": "CCCCC(C)OC(=O)CC(C)NS(=O)(=O)c1ccc(Cl)cc1", "note": "(stereo not shown) [compound 50, D,L N-4-chlorobenzensulfonyl-3-aminobutyric acid 1-methylpentyl ester]", "values": [{"measurement": "Control efficacy (%) 6d", "result": 77, "unit": "%"}]}
{"smiles": "CCCCC(C)OC(=O)CC(C)NS(=O)(=O)c1ccc(C)cc1", "note": "(stereo not shown) [compound 16, D,L N-4-methylbenzenesulfonyl-3-aminobutyric acid i-methylpentyl ester]", "values": [{"measurement": "Control efficacy (%) 6d", "result": 79, "unit": "%"}]}
{"smiles": "CCCCC(C)OC(=O)CC(C)NC(=O)c1ccc(-c2cccs2)cc1", "note": "(stereo not shown) [compound 49, D,L N-4-2-thiophenebenzoyl-3-aminobutyric acid 1-methylpentyl ester]", "values": [{"measurement": "Control efficacy (%) 6d", "result": 75, "unit": "%"}]}
{"smiles": "CCCCC(C)OC(=O)CC(C)NC(=O)c1ccc(Cl)cc1", "note": "(stereo not shown) [compound 18, D,L N-4-cholrobenzoyl-3-aminobutyric acid 1-methylpentyl ester]", "values": [{"measurement": "Control efficacy (%) 6d", "result": 76, "unit": "%"}]}
{"smiles": "CCCCCCCOC(=O)CC(C)NC(=O)c1ccc(OC)cc1", "note": "(stereo not shown) [compound 12, D,L N-4-methoxybenzoyl-3-aminobutyric acid heptyl ester]", "values": [{"measurement": "Control efficacy (%) 6d", "result": 89, "unit": "%"}]}
{"smiles": "CC(CC(=O)OCCC(Cl)(Cl)Cl)NS(=O)(=O)c1ccccc1", "note": "(stereo not shown) [compound 19, D,L N-benzenesulfonyl-3-aminobutyric acid 2-(trichloromethyl)ethyl ester]", "values": [{"measurement": "Control efficacy (%) 6d", "result": 75, "unit": "%"}]}
{"smiles": "CCCCC(C)OC(=O)CC(C)NC(=O)c1ccccc1NC", "note": "(stereo not shown) [compound 52, D,L N-2-methylaminobenzoyl-3-aminobutyric acid 1-methylpentyl ester]", "values": [{"measurement": "Control efficacy (%) 6d", "result": 74, "unit": "%"}]}
{"smiles": "CCCCCCCOC(=O)CC(C)NC(=O)c1c(F)cccc1F", "note": "(stereo not shown) [compound 14, D,L N-2,6-difluorobenzoyl-3-aminobutyric acid heptyl ester]", "values": [{"measurement": "Control efficacy (%) 6d", "result": 79, "unit": "%"}]}
{"smiles": "CCCCCCCOC(=O)CC(C)NC(=O)c1cc(C)cc(C)c1", "note": "(stereo not shown) [compound 13, D,L N-3,5-dimethylbezoyl-3-aminobutyric acid heptyl ester]", "values": [{"measurement": "Control efficacy (%) 6d", "result": 84, "unit": "%"}]}
{"smiles": "CCCC(C)OC(=O)CC(C)NC(=O)c1ccc(C)c(C)c1", "note": "(stereo not shown) [compound 21, D,L N-3,4-dimethylbezoyl-3-aminobutyric acid 1-methylbutyl ester]", "values": [{"measurement": "Control efficacy (%) 6d", "result": 73, "unit": "%"}]}
{"smiles": "CCC(C)OC(=O)CC(C)NS(=O)(=O)c1ccc(C)cc1", "note": "(stereo not shown) [compound 20, D,L N-4-methylbenzenesulfonyl-3-aminobutyric 1-methylpropyll ester]", "values": [{"measurement": "Control efficacy (%) 6d", "result": 75, "unit": "%"}]}
{"smiles": "CCCCCCCCOC(=O)CC(C)NC(=O)c1ccc(-c2cccs2)cc1", "note": "(stereo not shown) [compound 48, D,L N-4-2-thiophenebenzoyl-3-aminobutyric acid octyl ester]", "values": [{"measurement": "Control efficacy (%) 6d", "result": 82, "unit": "%"}]}
